# Results published in US11466013B2 (Betta Pharmaceuticals Co., LTD, priority 2018, dated 2022).
# Legend:
# COLO205 cells = assay: Cell proliferation assay (COLO205), Cell-titer Glo; type: cell-based; conditions: Homo sapiens, COLO 205, 120 h incubation
# Procedure: COLO205 cells were spread into a 96-well plate at 135 μL/well at 2000 cells. After incubating overnight, compound solutions of gradient concentration was prepared, and added 15 μL of DMSO solution of the test compound of each concentration to the cells of each well. The final concentration of the compound was 30000, 10000, 3333.3, 1111.1, 370.4, 123.5, 41.2, 13.7, 4.6, 0 nM (the final concentration of DMSO was 0.5%). 5% CO2 was incubated for 120 h at 37° C. 50 μL of Cell-titer Glo working solution was added to each well, shaked and mixed, and incubated at room temperature for 10 minutes. The multi-functional microplate reader read the luminescence value, and converted the luminescence value reading into inhibition percentage. Inhibition percentage=(maximum value−reading)/(maximum value−minimum value)*100.
# The “maximum value” was the DMSO control, the “minimum value” indicates the cell-free control group.
# (§1) Graphpad Prism software was used to perform curve fitting and obtain IC50 value.
# HCT 116 cells = assay: Cell proliferation assay (HCT 116), Cell-titer Glo; type: cell-based; conditions: Homo sapiens, 120 h incubation
# Procedure: The HCT 116 cells were paved in a 96-well plate at 1200 cells, 160 μL/well. After incubating overnight, the compound solutions of gradient concentration was prepared, and 40 μL of DMSO solution of the test compound of each concentration was added to the cells of each well. The final concentration of the compound was 30000, 10000, 3333.3, 1111.1, 370.4, 123.5, 41.2, 13.7, 4.6, 0 nM (the final concentration of DMSO was 0.5%). 5% CO2 was incubated for 120 h at 37° C. 50 μL of Cell-titer Glo working solution was added to each well, shaked and mixed, and incubated at room temperature for 10 minutes. The multi-functional microplate reader read the luminescence value, and converted the luminescence value reading into inhibition percentage. Inhibition percentage=(maximum value−reading)/(maximum value−minimum value)*100.
# The “maximum value” was the DMSO control, the “minimum value” indicated the cell-free control group.
# as §1
# ERK2 = ERK2 (Homo sapiens, UniProt P28482); assay: Kinase assay (Caliper, FAM-labeled peptide), ERK2; type: biochemical
# Outline: (§2)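 Kinase preincubated 10 min at room temperature with serially diluted compound before FAM-labeled peptide plus ATP added; reaction run at 28 °C, then stopped. Substrate conversion read by Caliper mobility shift, normalized to DMSO and low controls, curve-fitted for IC50.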
# ERK1 = ERK1 (Homo sapiens, UniProt P27361); assay: Kinase assay (Caliper, FAM-labeled peptide), ERK1; type: biochemical
# Outline: as §2
# Chain of ERK1 (P27361 whole entry): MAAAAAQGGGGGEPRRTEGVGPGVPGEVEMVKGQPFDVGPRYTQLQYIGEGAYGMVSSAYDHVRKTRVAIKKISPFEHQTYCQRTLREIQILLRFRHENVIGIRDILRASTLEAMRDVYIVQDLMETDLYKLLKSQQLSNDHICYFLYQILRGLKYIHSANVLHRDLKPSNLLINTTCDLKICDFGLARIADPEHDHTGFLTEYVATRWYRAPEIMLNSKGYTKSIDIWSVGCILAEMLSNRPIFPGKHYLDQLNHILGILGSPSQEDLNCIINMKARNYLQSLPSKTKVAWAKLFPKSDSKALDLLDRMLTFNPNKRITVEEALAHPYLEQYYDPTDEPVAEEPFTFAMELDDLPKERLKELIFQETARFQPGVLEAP
# Chain of ERK2 (P28482 whole entry): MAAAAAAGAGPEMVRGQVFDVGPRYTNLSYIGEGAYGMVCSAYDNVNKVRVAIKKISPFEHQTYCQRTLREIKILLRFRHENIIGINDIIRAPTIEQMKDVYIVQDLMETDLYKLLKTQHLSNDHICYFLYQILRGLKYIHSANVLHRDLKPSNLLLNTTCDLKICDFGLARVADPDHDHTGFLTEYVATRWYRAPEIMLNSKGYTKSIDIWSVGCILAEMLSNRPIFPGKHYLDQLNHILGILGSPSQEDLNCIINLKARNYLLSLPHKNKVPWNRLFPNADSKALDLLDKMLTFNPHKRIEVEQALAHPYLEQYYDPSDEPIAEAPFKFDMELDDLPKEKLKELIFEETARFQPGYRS
Structure (SMILES),IC50 (COLO205 cells) [nM],IC50 (HCT 116 cells) [nM],IC50 (ERK2) [nM],IC50 (ERK1) [nM]
"COC[C@H]1Cn2cc(-c3nc(Nc4ccnn4C)ncc3C)nc2C(=O)N1Cc1ccc(F)c(F)c1 [AZD0364, reference compound]",72.4,83,–,–
"CC(C)Nc1cc(-c2cc3n(c2)CC(CO)(CO)CN(Cc2cc(F)ccc2CO)C3=O)c(Cl)cn1 [Example 29, 8-(5-chloro-2-(isopropylamino)pyridin-4-yl)-2-(5-fluoro-2-(hydroxymethyl)benzyl)-4,4-bis (hydroxymethyl)-2,3,4,5-tetrahydro-1h-pyrrolo[1,2-a][1,4] diazepine-1-one]",7.6,6.3,0.83,0.68
"COC[C@H]1Cn2cc(-c3nc(Nc4ccnn4C)ncc3C)cc2C(=O)N1Cc1cc(F)ccc1CO [Example 35, (R)-2-(5-fluoro-2-(hydroxymethyl)benzyl)-3-(methoxymethyl)-7-(5-methyl-2-((1-methyl-1H-pyrazol-5-yl)amino)pyrimidin-4-yl)-3,4-dihydropyrrolo[1,2-a]pyrazine-1(2H)-one]",16.6,10.4,0.48,0.84
"COC[C@H]1Cn2cc(-c3cc(Nc4ccnn4C)ncc3Cl)cc2C(=O)N1Cc1cc(F)ccc1CO [Example 45, (R)-7-(5-chloro-2-((1-methyl-1H-pyrazol-5-yl)amino)pyridin-4-yl)-2-(5-fluoro-2-(hydroxymethyl)benzyl)-3-(methoxymethyl)-3,4-dihydropyrrolo[1,2-a]pyrazine-1(2H)-one]",3.3,6.2,1.2,0.9
"Cn1nccc1Nc1cc(-c2cc3n(c2)CCN(Cc2cc(F)ccc2CO)C3=O)c(Cl)cn1 [Example 50, 7-(5-Chloro-2-((1-methyl-1H-pyrazol-5-yl)amino)pyridin-4-yl)-2-(5-fluoro-2-(hydroxymethyl)benzyl)-3,4-dihydropyrrolo[1,2-a]pyrazine-1(2H)-one]",11.3,6.5,0.89,0.72
"CCn1nccc1Nc1cc(-c2cc3n(c2)C[C@H](COC)N(Cc2cc(F)ccc2CO)C3=O)c(Cl)cn1 [Example 52, (R)-7-(5-chloro-2-((1-ethyl-1H-pyrazol-5-yl)amino)pyridin-4-yl)-2-(5-fluoro-2-(hydroxymethyl)benzyl)-3-(methoxymethyl)-3,4-dihydropyrrolo[1,2-a]pyrazine-1(2H)-one]",13.6,10.7,–,–
"COC[C@H]1Cn2cc(-c3cc(N[C@H]4CC[C@H](O)CC4)ncc3Cl)cc2C(=O)N1Cc1cc(F)ccc1CO [Example 71, (R)-7-(5-chloro-2-(((1R,4R)-4-hydroxycyclohexyl)amino)pyridine-4-yl)-2-(5-fluoro-2-(hydroxymethyl)benzyl)-3-(methoxymethyl)-3,4-dihydropyrrolo[1,2-a] pyrazine-1(2H)-one]",–,27,1.4,1.1
"COC[C@H]1Cn2cc(-c3cc(Nc4ccnn4C)ncc3Cl)cc2C(=O)N1Cc1cc(F)c(F)cc1CO [Example 95, (R)-7-(5-chloro-2-((1-methyl-1h-pyrazole-5-yl)amino)pyridine-4-yl)-2-(4,5-difluoro-2-(hydroxymethyl)benzyl)-3-(methoxymethyl)-3,4-dihydropyrrolo[1,2-a] pyrazine-1(2H)-one]",6.9,6.9,0.9,–
"COC[C@H]1Cn2cc(-c3cc(Nc4ccnn4C)ncc3Cl)cc2C(=O)N1Cc1cccc(F)c1CO [Example 98, (R)-7-(5-chloro-2-((1-methyl-1h-pyrazole-5-yl)amino)pyridine-4-yl)-2-(3-fluoro-2-(hydroxymethyl)benzyl)-3-(methoxymethyl)-3,4-dihydropyrrolo[1,2-a] pyrazine-1(2H)-one]",10.7,9,–,–
"COC[C@H]1Cn2cc(-c3cc(Nc4ccnn4C)ncc3Cl)cc2C(=O)N1Cc1ccc(F)cc1CO [Example 99, (R)-7-(5-chloro-2-((1-methyl-1h-pyrazole-5-yl)amino)pyridine-4-yl)-2-(4-fluoro-2-(hydroxymethyl)benzyl)-3-(methoxymethyl)-3,4-dihydropyrrolo[1,2-a] pyrazine-1(2H)-one]",21.7,18,–,–
"COC[C@H]1Cn2cc(-c3cc(Nc4ccnn4C)ncc3C(F)(F)F)cc2C(=O)N1Cc1cc(F)ccc1CO [Example 100, (R)-2-(5-fluoro-2-(hydroxymethyl)benzyl)-3-(methoxymethyl)-7-(2-((1-methyl-1h-pyrazole-5-yl)amino)-5-(trifluoromethyl)pyridin-4-yl)-3,4-dihydropyrrolo [1,2-a]pyrazine-1(2H)-one]",19,19.9,–,–
"COC[C@H]1Cn2cc(-c3cc(Nc4ccnn4C)ncc3C)cc2C(=O)N1Cc1cc(F)ccc1CO [Example 102, (R)-2-(5-fluoro-2-(hydroxymethyl)benzyl)-3-(methoxymethyl)-7-(5-methyl-2-((1-methyl-1h-pyrazole-5-yl)amino)pyridine-4-yl)-3,4-dihydropyrrolo[1,2-a] pyrazine-1(2H)-one]",6.4,11.6,–,–
"COC[C@H]1Cn2cc(-c3nc(NC4CCOCC4)ncc3Cl)cc2C(=O)N1Cc1cc(F)ccc1CO [Example 130, (R)-7-(5-chloro-2-((tetrahydro-2h-pyran-4-yl)amino)pyrimidin-4-yl)-2-(5-fluoro-2-(hydroxymethyl)benzyl)-3-(methoxymethyl)-3.4-dihydropyrrolo[1,2-a] pyrazine-1(2H)-one]",20.4,5.3,–,–
"Cn1nccc1Nc1cc(-c2cc3n(c2)CCN(Cc2cc(F)cc(F)c2CO)C3=O)c(Cl)cn1 [Example 148, 7-(5-chloro-2-((1-methyl-1h-pyrazole-5-yl)amino)pyridine-4-yl)-2-(3,5-difluoro-2-(hydroxymethyl)benzyl)-3,4-dihydropyrrolo[1,2-a] pyrazine-1(2H)-one]",12.9,6.3,0.7,–
"Cn1nccc1Nc1cc(-c2cc3n(c2)CCN(Cc2cccc(F)c2CO)C3=O)c(Cl)cn1 [Example 150, 7-(5-chloro-2-((1-methyl-1h-pyrazole-5-yl)amino)pyridine-4-yl)-2-(3-fluoro-2-(hydroxymethyl)benzyl)-3,4-dihydropyrrolo[1,2-a] pyrazine-1(2H)-one]",17.8,9.5,–,–
"Cc1cnc(Nc2ccnn2C)cc1-c1cc2n(c1)CCN(Cc1cc(F)ccc1CO)C2=O [Example 152, 2-(5-fluoro-2-(hydroxymethyl)benzyl)-7-(5-methyl-2-((1-methyl-1h-pyrazole-5-yl)amino)pyridine-4-yl)-3,4-dihydropyrrolo[1,2-a] pyrazine-1(2H)-one]",14.3,7.6,0.3,–
"Cn1nccc1Nc1cc(-c2cc3n(c2)CCN(Cc2cc(F)c(F)cc2CO)C3=O)c(Cl)cn1 [Example 160, 7-(5-chloro-2-((1-methyl-1h-pyrazole-5-yl)amino)pyridine-4-yl)-2-(4,5-difluoro-2-(hydroxymethyl)benzyl)-3,4-dihydropyrrolo[1,2-a] pyrazine-1(2H)-one]",11.4,10.7,0.89,–
"COC[C@H]1Cn2cc(-c3nc(Nc4ccnn4C)ncc3C(F)(F)F)cc2C(=O)N1Cc1cc(F)ccc1CO [Example 163, (R)-2-(5-fluoro-2-(hydroxymethyl)benzyl)-3-(methoxymethyl)-7-(2-((1-methyl-1h-pyrazole-5-yl)amino)-5-(trifluoromethyl)pyrimidin-4-yl)-3,4-dihydropyrrolo[1,2-a] pyrazine-1(2H)-one]",15.4,18.8,0.62,–
"COC[C@H]1Cn2cc(-c3cc(Nc4ccnn4C)ncc3Cl)cc2C(=O)N1Cc1cc(F)c(F)c(F)c1CO [Example 168, (R)-7-(5-chloro-2-((1-methyl-1h-pyrazole-5-yl)amino)pyridine-4-yl)-3-(methoxymethyl)-2-(3,4,5-fluoro-2-(hydroxymethyl)benzyl)-3,4-dihydropyrrolo[1,2-a] pyrazine-1(2H)-one]",11,8.4,0.59,–
"Cn1nccc1Nc1cc(-c2cc3n(c2)CCN(Cc2cc(F)cc(F)c2)C3=O)c(Cl)cn1 [Example D10, 7-(5-chloro-2-((1-methyl-1h-pyrazole-5-yl)amino)pyridine-4-yl)-2-(3,5-difluorobenzyl)-3,4-dihydropyrrolo[1,2-a] pyrazine-1(2H)-one, reference compound]",–,52.3,–,–
